Values of other authors, collected in patent publication EP0879035B1, “BISMUTH-CONTAINING COMPOSITIONS IN TOPICAL DOSAGE FORMS” (Josman Laboratories, Inc., priority 1995, dated 1997).
Where two headings read alike, the source gives them in different places.

Tests used:
[1] = dogs treated for six months; 160, 320, and 640 mg/kg body weight
[2] = rats treated for three months; 160, 320, and 640 mg/kg body weight
[3] = in vivo
H. Pylori = conditions: against H. Pylori

For “1,2,3-PROPANETRICARBONIC ACID, 2-HYDROXY, BISMUTH(3T)POTASSIUM [CBS]”, the “toxicity on chronic daily administration” value [1] is listed as “No toxicity”, the “toxicity on chronic daily administration” value [2] is listed as “No toxicity” and the “steady-state blood levels unlikely to cause any neurotoxicity” value [3] is listed as 50-100. The “systemic bioavailability of bismuth” value ([3]; po) was 0.16-0.28 % of the administered dose and the “minimum inhibitory concentration (MIC), range” value (H. Pylori) was 4 to 32 µg/mL.
